Laboratory results as given in ChEMBL document CHEMBL2151025, “Synthesis and structure-activity relationship of potent, selective and orally active anthranilamide-based factor Xa inhibitors: application of weakly basic sulfoximine group as novel S4 binding element” (Eur J Med Chem, 2012).

system: Rattus norvegicus; assay: Antithrombotic activity in FeCl3-induced venous thrombosis Wistar rat model assessed as reduction in thrombus weight at 30 mg/kg, po after 2 hrs; type: functional; parameters: scale not given: the % may be the effect or the level left; conditions: not given

Compound | Activity [%]
CCN(CC)CC(=O)N=S(C)(=O)c1ccc(C(=O)Nc2ccc(Cl)cc2C(=O)Nc2ccc(Cl)cn2)cc1.Cl (centres undefined) | 81

biological target: CYP3A4 (Homo sapiens, UniProt P08684); assay: Inhibition of human CYP3A4 at 10 uM; type: ADME; conditions: not given
Sequence (P08684 whole entry): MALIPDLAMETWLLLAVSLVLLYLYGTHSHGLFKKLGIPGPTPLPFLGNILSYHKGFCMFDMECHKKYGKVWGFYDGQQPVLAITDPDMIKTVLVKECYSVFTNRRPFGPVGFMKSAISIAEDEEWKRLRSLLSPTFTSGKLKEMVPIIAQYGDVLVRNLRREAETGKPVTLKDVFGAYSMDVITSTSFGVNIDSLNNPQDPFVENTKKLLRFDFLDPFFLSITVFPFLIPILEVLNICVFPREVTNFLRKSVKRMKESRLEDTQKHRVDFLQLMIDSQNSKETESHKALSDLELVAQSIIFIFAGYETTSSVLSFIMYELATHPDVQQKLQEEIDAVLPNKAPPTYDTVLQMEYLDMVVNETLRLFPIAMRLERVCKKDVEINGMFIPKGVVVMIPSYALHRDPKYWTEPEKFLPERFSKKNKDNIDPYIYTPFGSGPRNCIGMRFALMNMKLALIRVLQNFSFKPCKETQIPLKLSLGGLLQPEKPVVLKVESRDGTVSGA

Compound | inhibition at 10 µM [%]
CCN(CC)CC(=O)N=S(C)(=O)c1ccc(C(=O)Nc2ccc(Cl)cc2C(=O)Nc2ccc(Cl)cn2)cc1 (centres undefined) | 18
CCNCC(=O)N=S(C)(=O)c1ccc(C(=O)Nc2ccc(Cl)cc2C(=O)Nc2ccc(Cl)cn2)cc1 (centres undefined) | 27

system: Plasma; assay: Anticoagulant activity in rat plasma assessed as concentration required to double prothrombin time; type: functional; conditions: not given

Compound | 2PT [µM]
COc1cc(Cl)cc(C(=O)Nc2ccc(Cl)cn2)c1NC(=O)c1ccc(S(C)(=O)=NC(=O)CN2CCCC2)cc1 (centres undefined) | 1.1
CN(C)CC(=O)N=S(C)(=O)c1ccc(C(=O)Nc2ccc(Cl)cc2C(=O)Nc2ccc(Cl)cn2)cc1 (centres undefined) | 1.4
CN(C)CCN=S(C)(=O)c1ccc(C(=O)Nc2ccc(Cl)cc2C(=O)Nc2ccc(Cl)cn2)cc1 (centres undefined) | 2.01
CNCC(=O)N=S(C)(=O)c1ccc(C(=O)Nc2c(OC)cc(Cl)cc2C(=O)Nc2ccc(Cl)cn2)cc1 (centres undefined) | 0.9
CCN(CC)CC(=O)N=S(C)(=O)c1ccc(C(=O)Nc2ccc(Cl)cc2C(=O)Nc2ccc(Cl)cn2)cc1 (centres undefined) | 0.8
CCNCC(=O)N=S(C)(=O)c1ccc(C(=O)Nc2ccc(Cl)cc2C(=O)Nc2ccc(Cl)cn2)cc1 (centres undefined) | 2.1
CS(=O)(=NC(=O)CN1CCCC1)c1ccc(C(=O)Nc2ccc(Cl)cc2C(=O)Nc2ccc(Cl)cn2)cc1 (centres undefined) | 1.57
O=C(NC[C@H]1CN(c2ccc(N3CCOCC3=O)cc2)C(=O)O1)c1ccc(Cl)s1 [RIVAROXABAN] | 1.5

system: Plasma; conditions: not given

Compound | 2PT [µM]
COc1cc(Cl)cc(C(=O)Nc2ccc(Cl)cn2)c1NC(=O)c1ccc(S(C)(=O)=NC(=O)CN2CCCC2)cc1 (centres undefined) | 0.53
CN(C)CC(=O)N=S(C)(=O)c1ccc(C(=O)Nc2ccc(Cl)cc2C(=O)Nc2ccc(Cl)cn2)cc1 (centres undefined) | 1.2
CN(C)CCN=S(C)(=O)c1ccc(C(=O)Nc2ccc(Cl)cc2C(=O)Nc2ccc(Cl)cn2)cc1 (centres undefined) | 1.14
CNCC(=O)N=S(C)(=O)c1ccc(C(=O)Nc2c(OC)cc(Cl)cc2C(=O)Nc2ccc(Cl)cn2)cc1 (centres undefined) | 0.58
CCN(CC)CC(=O)N=S(C)(=O)c1ccc(C(=O)Nc2ccc(Cl)cc2C(=O)Nc2ccc(Cl)cn2)cc1 (centres undefined) | 0.68
CCNCC(=O)N=S(C)(=O)c1ccc(C(=O)Nc2ccc(Cl)cc2C(=O)Nc2ccc(Cl)cn2)cc1 (centres undefined) | 0.81
CS(=O)(=NC(=O)CN1CCCC1)c1ccc(C(=O)Nc2ccc(Cl)cc2C(=O)Nc2ccc(Cl)cn2)cc1 (centres undefined) | 0.46
O=C(NC[C@H]1CN(c2ccc(N3CCOCC3=O)cc2)C(=O)O1)c1ccc(Cl)s1 [RIVAROXABAN] | 0.39

biological target: T1, Coagulation factor X (Homo sapiens, UniProt P00742); assay: Inhibition of F10a assessed as S-2765 substrate hydrolysis by microplate reader analysis; conditions: not given
T1 sequence (P00742 41-179 limits assumed): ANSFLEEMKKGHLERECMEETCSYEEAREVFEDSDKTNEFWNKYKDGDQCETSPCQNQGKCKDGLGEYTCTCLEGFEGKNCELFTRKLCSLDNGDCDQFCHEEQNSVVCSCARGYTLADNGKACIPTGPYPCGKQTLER
T1 sequence (P00742 235-488 limits assumed): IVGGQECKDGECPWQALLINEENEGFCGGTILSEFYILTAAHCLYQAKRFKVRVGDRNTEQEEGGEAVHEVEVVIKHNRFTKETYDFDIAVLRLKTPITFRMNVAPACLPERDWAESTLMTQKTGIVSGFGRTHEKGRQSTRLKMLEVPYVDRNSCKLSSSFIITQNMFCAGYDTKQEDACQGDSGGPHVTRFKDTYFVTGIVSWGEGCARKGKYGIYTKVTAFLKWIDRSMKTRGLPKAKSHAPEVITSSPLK

Compound | Ki [nM]
CCN(CC)CC(=O)N=S(C)(=O)c1ccc(C(=O)Nc2ccc(Cl)cc2C(=O)Nc2ccc(Cl)cn2)cc1 (centres undefined) | 1.1
CCNCC(=O)N=S(C)(=O)c1ccc(C(=O)Nc2ccc(Cl)cc2C(=O)Nc2ccc(Cl)cn2)cc1 (centres undefined) | 1.5

biological target: T1, Coagulation factor X; assay: Inhibition of human F10a using S-2765 as substrate after 45 mins; conditions: not given

Compound | IC50 [nM]
COc1cc(Cl)cc(C(=O)Nc2ccc(Cl)cn2)c1NC(=O)c1ccc(S(C)(=O)=NC(=O)CN2CCCC2)cc1 (centres undefined) | 6.4
CN(C)CC(=O)N=S(C)(=O)c1ccc(C(=O)Nc2ccc(Cl)cc2C(=O)Nc2ccc(Cl)cn2)cc1 (centres undefined) | 9
CN(C)CCN=S(C)(=O)c1ccc(C(=O)Nc2ccc(Cl)cc2C(=O)Nc2ccc(Cl)cn2)cc1 (centres undefined) | 11.6
CNCC(=O)N=S(C)(=O)c1ccc(C(=O)Nc2c(OC)cc(Cl)cc2C(=O)Nc2ccc(Cl)cn2)cc1 (centres undefined) | 5.6
CCN(CC)CC(=O)N=S(C)(=O)c1ccc(C(=O)Nc2ccc(Cl)cc2C(=O)Nc2ccc(Cl)cn2)cc1 (centres undefined) | 2.1
CCNCC(=O)N=S(C)(=O)c1ccc(C(=O)Nc2ccc(Cl)cc2C(=O)Nc2ccc(Cl)cn2)cc1 (centres undefined) | 2.7
CS(=O)(=NC(=O)CN1CCCC1)c1ccc(C(=O)Nc2ccc(Cl)cc2C(=O)Nc2ccc(Cl)cn2)cc1 (centres undefined) | 3.2

biological target: Prothrombin (Homo sapiens, UniProt P00734); assay: Inhibition of thrombin assessed as S-2238 substrate hydrolysis by microplate reader analysis; conditions: not given

Compound | Ki [nM]
CCN(CC)CC(=O)N=S(C)(=O)c1ccc(C(=O)Nc2ccc(Cl)cc2C(=O)Nc2ccc(Cl)cn2)cc1 (centres undefined) | > 20000
CCNCC(=O)N=S(C)(=O)c1ccc(C(=O)Nc2ccc(Cl)cc2C(=O)Nc2ccc(Cl)cn2)cc1 (centres undefined) | > 20000

system: Rattus norvegicus; assay: Antithrombotic activity in FeCl3-induced arterial thrombosis Wistar rat model assessed as reduction in thrombus weight at 10 mg/kg, po after 2 hrs; type: functional; parameters: scale not given: the % may be the effect or the level left; conditions: not given

Compound | Activity [%]
O=C(NC[C@H]1CN(c2ccc(N3CCOCC3=O)cc2)C(=O)O1)c1ccc(Cl)s1 [RIVAROXABAN] | 50
CCN(CC)CC(=O)N=S(C)(=O)c1ccc(C(=O)Nc2ccc(Cl)cc2C(=O)Nc2ccc(Cl)cn2)cc1.Cl (centres undefined) | 32

system: Rattus norvegicus; assay: Antithrombotic activity in FeCl3-induced venous thrombosis Wistar rat model assessed as reduction in thrombus weight at 10 mg/kg, po after 2 hrs; type: functional; parameters: scale not given: the % may be the effect or the level left; conditions: not given

Compound | Activity [%]
O=C(NC[C@H]1CN(c2ccc(N3CCOCC3=O)cc2)C(=O)O1)c1ccc(Cl)s1 [RIVAROXABAN] | 63
CCN(CC)CC(=O)N=S(C)(=O)c1ccc(C(=O)Nc2ccc(Cl)cc2C(=O)Nc2ccc(Cl)cn2)cc1.Cl (centres undefined) | 45

system: Rattus norvegicus; assay: AUC (0 to 24 hrs) in fasted Wistar rat assessed as 5-Chloro-N-(5-chloropyridin-2-yl)-2-(4-(N-(2-(ethyl-amino)acetyl)-S-methylsulfon imidoyl) benzamido) benzamide at 30 mg/kg, po; type: ADME, organism-based, Plasma; parameters: time < 24 hr, dose 30 mg/kg, route oral; conditions: in vivo

Compound | AUC [µg·h/mL]
CCN(CC)CC(=O)N=S(C)(=O)c1ccc(C(=O)Nc2ccc(Cl)cc2C(=O)Nc2ccc(Cl)cn2)cc1.Cl (centres undefined) | 43.51

biological target: T1, Coagulation factor X; assay: Inhibition of human F10a using S-2765 as substrate at 0.1 uM after 45 mins; conditions: not given

Compound | inhibition [%]
COc1cc(Cl)cc(C(=O)Nc2ccc(Cl)cn2)c1NC(=O)c1ccc(S(C)(=O)=NC(=O)CN2CCCC2)cc1 (centres undefined) | 90
CN(C)CC(=O)N=S(C)(=O)c1ccc(C(=O)Nc2ccc(Cl)cc2C(=O)Nc2ccc(Cl)cn2)cc1 (centres undefined) | 85
CN(C)CCN=S(C)(=O)c1ccc(C(=O)Nc2ccc(Cl)cc2C(=O)Nc2ccc(Cl)cn2)cc1 (centres undefined) | 82
CNCC(=O)N=S(C)(=O)c1ccc(C(=O)Nc2c(OC)cc(Cl)cc2C(=O)Nc2ccc(Cl)cn2)cc1 (centres undefined) | 92
CCNCC(=O)N=S(C)(=O)c1ccc(C(=O)Nc2ccc(Cl)cc2C(=O)Nc2ccc(Cl)cn2)cc1 (centres undefined) | 100
CS(=O)(=NC(=O)CN1CCCC1)c1ccc(C(=O)Nc2ccc(Cl)cc2C(=O)Nc2ccc(Cl)cn2)cc1 (centres undefined) | 95

system: Rattus norvegicus; assay: Antithrombotic activity in FeCl3-induced arterial thrombosis Wistar rat model assessed as reduction in thrombus weight at 30 mg/kg, po after 2 hrs; type: functional; parameters: scale not given: the % may be the effect or the level left; conditions: not given

Compound | Activity [%]
CCN(CC)CC(=O)N=S(C)(=O)c1ccc(C(=O)Nc2ccc(Cl)cc2C(=O)Nc2ccc(Cl)cn2)cc1.Cl (centres undefined) | 71

system: Rattus norvegicus; assay: Half life in fasted Wistar rat assessed as 5-Chloro-N-(5-chloropyridin-2-yl)-2-(4-(N-(2-(ethyl-amino)acetyl)-S-methylsulfon imidoyl) benzamido) benzamide at 30 mg/kg, po; type: ADME, organism-based; parameters: dose 30 mg/kg, route oral; conditions: in vivo

Compound | t1/2 [h]
CCN(CC)CC(=O)N=S(C)(=O)c1ccc(C(=O)Nc2ccc(Cl)cc2C(=O)Nc2ccc(Cl)cn2)cc1.Cl (centres undefined) | 4.79

system: Rattus norvegicus; assay: Tmax in fasted Wistar rat assessed as 5-Chloro-N-(5-chloropyridin-2-yl)-2-(4-(N-(2-(ethyl-amino)acetyl)-S-methylsulfon imidoyl) benzamido) benzamide at 30 mg/kg, po; type: ADME, organism-based; parameters: dose 30 mg/kg, route oral; conditions: in vivo

Compound | Tmax [h]
CCN(CC)CC(=O)N=S(C)(=O)c1ccc(C(=O)Nc2ccc(Cl)cc2C(=O)Nc2ccc(Cl)cn2)cc1.Cl (centres undefined) | 2.75

biological target: Vitamin K-dependent protein C (Homo sapiens, UniProt P04070); assay: Inhibition of activated protein C assessed as S-2366 substrate hydrolysis by microplate reader analysis; conditions: not given
Sequence (P04070 43-197 limits assumed): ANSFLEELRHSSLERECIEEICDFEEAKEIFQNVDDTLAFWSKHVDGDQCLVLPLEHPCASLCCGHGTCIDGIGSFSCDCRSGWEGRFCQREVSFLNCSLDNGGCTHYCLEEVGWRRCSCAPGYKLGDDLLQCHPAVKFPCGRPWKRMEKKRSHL
Sequence (P04070 212-461 limits assumed): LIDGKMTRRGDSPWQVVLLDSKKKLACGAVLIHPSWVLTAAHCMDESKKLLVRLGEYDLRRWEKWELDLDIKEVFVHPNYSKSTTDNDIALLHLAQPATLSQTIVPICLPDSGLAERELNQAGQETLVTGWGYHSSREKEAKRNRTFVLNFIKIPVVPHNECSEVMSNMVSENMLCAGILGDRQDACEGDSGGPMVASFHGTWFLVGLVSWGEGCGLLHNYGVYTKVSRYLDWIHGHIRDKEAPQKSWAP

Compound | Ki [nM]
CCN(CC)CC(=O)N=S(C)(=O)c1ccc(C(=O)Nc2ccc(Cl)cc2C(=O)Nc2ccc(Cl)cn2)cc1 (centres undefined) | > 20000
CCNCC(=O)N=S(C)(=O)c1ccc(C(=O)Nc2ccc(Cl)cc2C(=O)Nc2ccc(Cl)cn2)cc1 (centres undefined) | > 20000

system: Plasma; assay: Plasma concentration in fasted Wistar rat at 30 mg/kg, po; type: ADME, organism-based; parameters: dose 30 mg/kg, route oral; conditions: in vivo

Compound | Cp [µg/mL]
CCN(CC)CC(=O)N=S(C)(=O)c1ccc(C(=O)Nc2ccc(Cl)cc2C(=O)Nc2ccc(Cl)cn2)cc1.Cl (centres undefined) | < 0.1

system: Rattus norvegicus; assay: Cmax in fasted Wistar rat assessed as 5-Chloro-N-(5-chloropyridin-2-yl)-2-(4-(N-(2-(ethyl-amino)acetyl)-S-methylsulfon imidoyl) benzamido) benzamide at 30 mg/kg, po; type: ADME, organism-based; parameters: dose 30 mg/kg, route oral; conditions: in vivo

Compound | Cmax [µg/mL]
CCN(CC)CC(=O)N=S(C)(=O)c1ccc(C(=O)Nc2ccc(Cl)cc2C(=O)Nc2ccc(Cl)cn2)cc1.Cl (centres undefined) | 3.28

biological target: Tissue-type plasminogen activator (Homo sapiens, UniProt P00750); assay: Inhibition of tPA assessed as S-2288 substrate hydrolysis by microplate reader analysis; conditions: not given
Sequence (P00750 whole entry): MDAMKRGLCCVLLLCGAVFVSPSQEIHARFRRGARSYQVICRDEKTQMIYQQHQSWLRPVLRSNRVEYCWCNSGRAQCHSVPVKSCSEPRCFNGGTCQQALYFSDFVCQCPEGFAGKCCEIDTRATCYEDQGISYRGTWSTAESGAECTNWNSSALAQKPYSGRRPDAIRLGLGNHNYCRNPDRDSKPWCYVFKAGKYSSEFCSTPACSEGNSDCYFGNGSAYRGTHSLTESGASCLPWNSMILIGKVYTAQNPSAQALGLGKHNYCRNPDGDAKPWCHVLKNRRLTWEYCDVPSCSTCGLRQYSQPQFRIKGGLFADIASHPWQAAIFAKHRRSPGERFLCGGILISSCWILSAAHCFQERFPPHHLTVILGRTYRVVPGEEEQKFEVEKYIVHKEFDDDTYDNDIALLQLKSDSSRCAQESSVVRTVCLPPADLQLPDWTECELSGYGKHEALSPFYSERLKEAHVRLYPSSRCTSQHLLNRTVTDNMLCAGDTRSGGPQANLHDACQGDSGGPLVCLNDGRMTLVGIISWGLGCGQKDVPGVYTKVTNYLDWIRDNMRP

Compound | Ki [nM]
CCN(CC)CC(=O)N=S(C)(=O)c1ccc(C(=O)Nc2ccc(Cl)cc2C(=O)Nc2ccc(Cl)cn2)cc1 (centres undefined) | > 20000
CCNCC(=O)N=S(C)(=O)c1ccc(C(=O)Nc2ccc(Cl)cc2C(=O)Nc2ccc(Cl)cn2)cc1 (centres undefined) | > 20000

biological target: Plasminogen (Homo sapiens, UniProt P00747); assay: Inhibition of plasmin assessed as S-2302 substrate hydrolysis by microplate reader analysis; conditions: not given
Sequence (P00747 97-580 limits assumed): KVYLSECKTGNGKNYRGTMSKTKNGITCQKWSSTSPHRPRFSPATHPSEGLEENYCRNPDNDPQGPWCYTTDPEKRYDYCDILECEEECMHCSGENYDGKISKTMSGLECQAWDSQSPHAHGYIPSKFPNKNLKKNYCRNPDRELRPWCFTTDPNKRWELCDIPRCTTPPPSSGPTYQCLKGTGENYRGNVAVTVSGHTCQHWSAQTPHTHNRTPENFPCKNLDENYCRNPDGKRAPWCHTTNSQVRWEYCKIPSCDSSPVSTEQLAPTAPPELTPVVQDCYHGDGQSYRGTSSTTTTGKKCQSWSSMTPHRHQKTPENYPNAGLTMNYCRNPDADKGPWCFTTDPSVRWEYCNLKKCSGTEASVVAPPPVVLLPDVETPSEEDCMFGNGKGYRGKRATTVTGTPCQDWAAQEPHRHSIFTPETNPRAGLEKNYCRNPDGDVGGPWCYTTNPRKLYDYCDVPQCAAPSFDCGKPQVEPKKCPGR
Sequence (P00747 581-810 limits assumed): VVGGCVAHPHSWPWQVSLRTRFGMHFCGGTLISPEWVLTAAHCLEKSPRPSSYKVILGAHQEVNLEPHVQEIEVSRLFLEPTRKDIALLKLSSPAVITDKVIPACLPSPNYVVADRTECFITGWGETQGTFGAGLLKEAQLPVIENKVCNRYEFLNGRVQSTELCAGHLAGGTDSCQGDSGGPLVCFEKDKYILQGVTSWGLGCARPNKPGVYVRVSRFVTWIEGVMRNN

Compound | Ki [nM]
CCN(CC)CC(=O)N=S(C)(=O)c1ccc(C(=O)Nc2ccc(Cl)cc2C(=O)Nc2ccc(Cl)cn2)cc1 (centres undefined) | > 20000
CCNCC(=O)N=S(C)(=O)c1ccc(C(=O)Nc2ccc(Cl)cc2C(=O)Nc2ccc(Cl)cn2)cc1 (centres undefined) | > 20000

biological target: not listed separately; assay: Inhibition of trypsin assessed as S-2222 substrate hydrolysis by microplate reader analysis; conditions: not given

Compound | Ki [nM]
CCN(CC)CC(=O)N=S(C)(=O)c1ccc(C(=O)Nc2ccc(Cl)cc2C(=O)Nc2ccc(Cl)cn2)cc1 (centres undefined) | > 20000
CCNCC(=O)N=S(C)(=O)c1ccc(C(=O)Nc2ccc(Cl)cc2C(=O)Nc2ccc(Cl)cn2)cc1 (centres undefined) | > 20000
